Test results as given in patent publication EP1586565A1, “Substituted polycyclic aryl and heteroaryl pyrazinones useful for selective inhibition of the coagulation cascade” (Pharmacia Corporation, priority 1999, dated 2000).

Tests used:
[1] = target: T1, TF-VIIa (Homo sapiens, UniProt P08709); test: TF-VIIa Assay; type: biochemical; conditions: for IC50: cells printed as bare numbers (IC50), read-out: IC50 or % Inhibition TF-VIIa (30 µM); for IC50 or % Inhibition TF-VIIa (30 µM): % inhibition at 30 µM (cells with % or %@30, bare 0)
T1 construct: An extrinsic pathway is initiated by the conversion of coagulation factor VII to VIIa by Xa; purchased American Diagnostica, Greenwich CT; Soluble TF was made in house in E. coli

[2] = target: Trypsin (Sus scrofa, UniProt P00761); test: Trypsin Assay; conditions: for IC50: read-out: IC50 or % Inhibition Trpysin II (30 uM), cells printed as bare numbers (IC50); for IC50 or % Inhibition Trpysin II (30 uM): % inhibition at 30 uM (cells with % or %@30, bare 0)
[3] = target: T2, Human factor Xa (Homo sapiens, UniProt P00742); test: Xa Assay; type: biochemical; conditions: % inhibition at 30 µM (cells with % or %@30, bare 0)
T2 construct: leads from XII to XIIa to XIa to IXa and to the conversion of X to Xa; purchased Enzyme Research Laboratories, South Bend IN
T2 sequence (P00742 235-488 limits assumed): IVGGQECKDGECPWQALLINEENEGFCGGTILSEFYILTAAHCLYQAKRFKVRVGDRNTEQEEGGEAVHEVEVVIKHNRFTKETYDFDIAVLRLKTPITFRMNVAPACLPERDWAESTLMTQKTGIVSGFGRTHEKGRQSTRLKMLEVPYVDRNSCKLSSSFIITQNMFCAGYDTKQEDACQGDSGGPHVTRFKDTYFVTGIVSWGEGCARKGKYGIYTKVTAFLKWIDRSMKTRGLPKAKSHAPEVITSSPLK
T2 sequence (P00742 41-179 limits assumed): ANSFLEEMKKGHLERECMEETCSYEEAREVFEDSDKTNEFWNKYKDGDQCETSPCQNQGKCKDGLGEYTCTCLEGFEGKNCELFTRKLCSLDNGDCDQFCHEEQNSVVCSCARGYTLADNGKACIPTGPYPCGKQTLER

T1 sequence (P08709 213-466 limits assumed): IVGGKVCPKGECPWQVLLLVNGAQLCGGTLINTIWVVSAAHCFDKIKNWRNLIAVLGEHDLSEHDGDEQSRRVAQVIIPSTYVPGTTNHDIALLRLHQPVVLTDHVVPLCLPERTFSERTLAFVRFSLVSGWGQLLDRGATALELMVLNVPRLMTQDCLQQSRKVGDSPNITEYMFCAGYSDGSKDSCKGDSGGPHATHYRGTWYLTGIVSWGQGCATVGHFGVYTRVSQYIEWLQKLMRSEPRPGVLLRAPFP
T1 sequence (P08709 61-212 limits assumed): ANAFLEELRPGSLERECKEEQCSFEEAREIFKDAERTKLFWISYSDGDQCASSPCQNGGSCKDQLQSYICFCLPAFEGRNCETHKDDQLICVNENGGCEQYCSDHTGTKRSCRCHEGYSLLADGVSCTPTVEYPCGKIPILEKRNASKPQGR
T1 sequence (P13726 33-251 partner limits assumed): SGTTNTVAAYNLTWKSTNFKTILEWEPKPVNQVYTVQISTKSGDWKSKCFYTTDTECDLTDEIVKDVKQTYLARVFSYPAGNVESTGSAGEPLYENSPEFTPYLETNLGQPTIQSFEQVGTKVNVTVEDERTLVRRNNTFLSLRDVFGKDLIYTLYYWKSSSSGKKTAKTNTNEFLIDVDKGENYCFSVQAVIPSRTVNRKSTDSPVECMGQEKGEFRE
Chain of Trypsin (P00761 9-231): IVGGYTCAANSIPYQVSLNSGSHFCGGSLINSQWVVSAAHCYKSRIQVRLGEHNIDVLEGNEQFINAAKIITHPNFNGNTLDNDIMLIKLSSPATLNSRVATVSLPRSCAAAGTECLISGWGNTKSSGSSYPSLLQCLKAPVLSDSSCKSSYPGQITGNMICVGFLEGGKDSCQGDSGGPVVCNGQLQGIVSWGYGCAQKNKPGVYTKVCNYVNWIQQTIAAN

SMILES | IC50 [1] | IC50 [2] | IC50 or % Inhibition TF-VIIa (30 µM) [1] | IC50 or % Inhibition Factor Xa (30 µM) [3] | IC50 or % Inhibition Trpysin II (30 uM) [2]
Nc1ccc(CNC(=O)Cn2c(Cc3ccccc3)c(Cl)nc(NCCc3ccccc3)c2=O)cn1 [Example 9] | > 30 µM | > 30 µM |  |  | 
Nc1cccc(-c2c(Cl)nc(NC3CCC3)c(=O)n2CC(=O)NCc2ccccc2)c1 [compound 99] |  |  | 6%@30 | 8%@30 | 7%@30
N=C(N)c1ccc(CNC(=O)Cn2c(-c3ccccc3)c(Cl)nc(NCc3ccccn3)c2=O)cc1 [1507-24] |  |  | 0% | 15% | 25%@30
Nc1cccc(-c2c(Cl)nc(NC3CCC3)c(=O)n2CC(=O)NCCc2ccccc2)c1 [compound 89] |  |  | 5%@30 | 5%@30 | 9%@30
N=C(N)NCC#CCNC(=O)Cn1c(-c2ccccc2)cnc(NCCc2ccccc2)c1=O [Example 36] |  |  | 5% | 0% | 30%
N=C(N)c1ccc(CNC(=O)Cn2c(-c3ccccc3)c(Cl)nc(NCC3CC3)c2=O)cc1 [1517-43] |  |  | 25% | 0% | 43%
Nc1ccc(CNC(=O)Cn2c(CCc3ccccc3)c(Cl)nc(NCCc3ccccc3)c2=O)cn1 [Example 10, 3-(2-Phenylethylamino)-5-chloro-6-phenethyl-1-(2-amino-5-methylcarboxamidomethylpyridinyl)pyrazinone] | > 30 µM | > 30 µM |  |  | 
CC(C)Nc1nc(Cl)c(-c2cccc([N+](=O)[O-])c2)n(CC(=O)NCc2ccc(C(N)=NO)cc2)c1=O [Example 61] |  |  | 1% | 0% | 10%
